Source: patent US20210127673A1, “HERBICIDES” (SYNGENTA PARTICIPATIONS AG, priority 2016, published 2021)

What was measured:
Type in all cases: in vivo
[1] = system: Abutilon theophrasti (ABUTH); assay: Pre-emergence herbicidal activity, Abutilon theophrasti; parameters: key: 5=total damage to plant; 0=no damage to plant; conditions: 1000 g/ha, evaluated after 13 days, Test 1b
Description: (§1) Seeds of a variety of test species were sown in standard soil in pots: Triticum aestivium (TRZAW), Avena fatua (AVEFA), Alopecurus myosuroides (ALOMY), Echinochloa crus-galli (ECHCG), Lolium perenne (LOLPE), Zea Mays (ZEAMX), Abutilon theophrasti (ABUTH), Amaranthus retroflexus (AMARE) and Setaria faberi (SETFA). After cultivation for one day (pre-emergence) under controlled conditions in a glasshouse (at 24/16° C., day/night; 14 hours light; 65% humidity), the plants were sprayed with an aqueous spray solution derived from the formulation of the technical active ingredient in acetone/water (50:50) solution containing 0.5% Tween 20 (polyoxyethelyene sorbitan monolaurate, CAS RN 9005-64-5). The test plants were then grown in a glasshouse under controlled conditions (at 24/16°, day/night; 14 hours light; 65% humidity) and watered twice daily. After 13 days, the test was evaluated (5=total damage to plant; 0=no damage to plant).

[2] = system: Amaranthus retroflexus (AMARE); assay: Post-emergence herbicidal activity, Amaranthus retroflexus; parameters: key: 5=total damage to plant; 0=no damage to plant; conditions: 1000 g/ha, evaluated after 13 days, Test 2b
Description: (§2) Seeds of a variety of test species were sown in standard soil in pots: Triticum aestivium (TRZAW), Avena fatua (AVEFA), Alopecurus myosuroides (ALOMY), Echinochloa crus-galli (ECHCG), Lolium perenne (LOLPE), Zea Mays (ZEAMX), Abutilon theophrasti (ABUTH), Amaranthus retroflexus (AMARE) and Setaria faberi (SETFA). After 8 days cultivation (post-emergence) under controlled conditions in a glasshouse (at 24/16° C., day/night; 14 hours light; 65% humidity), the plants were sprayed with an aqueous spray solution derived from the formulation of the technical active ingredient in acetone/water (50:50) solution containing 0.5% Tween 20 (polyoxyethelyene sorbitan monolaurate, CAS RN 9005-64-5). The test plants were then grown in a glasshouse under controlled conditions (at 24/16° C., day/night; 14 hours light; 65% humidity) and watered twice daily. After 13 days, the test was evaluated (5=total damage to plant; 0=no damage to plant).

Lolium perenne (LOLPE) [3] = assay: Post-emergence herbicidal activity, Lolium perenne; parameters: key: 5=total damage to plant; 0=no damage to plant; conditions: 1000 g/ha, evaluated after 13 days, Test 2b
In short: (§3)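 Pot-grown plants sprayed 8 days after sowing with compound in acetone/water (50:50) containing 0.5% Tween 20, in a glasshouse at 24/16 °C day/night, 14 h light, 65% humidity. Damage scored 13 days after spraying on a 0–5 scale (5 = total damage, 0 = none).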

[4] = system: Amaranthus retroflexus (AMARE); assay: Pre-emergence herbicidal activity, Amaranthus retroflexus; parameters: key: 5=total damage to plant; 0=no damage to plant; conditions: 1000 g/ha, evaluated after 13 days, Test 1b
Description: as §1

Setaria faberi (SETFA) [5] = assay: Pre-emergence herbicidal activity, Setaria faberi; parameters: key: 5=total damage to plant; 0=no damage to plant; conditions: 1000 g/ha, evaluated after 13 days, Test 1b
In short: (§4)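 Visual injury score, 0–5, taken 13 days after a pre-emergence spray applied one day post-sowing; spray vehicle acetone/water (50:50) with 0.5% Tween 20.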

[6] = system: Abutilon theophrasti (ABUTH); assay: Post-emergence herbicidal activity, Abutilon theophrasti; parameters: key: 5=total damage to plant; 0=no damage to plant; conditions: 1000 g/ha, evaluated after 13 days, Test 2b
Description: as §2

Zea Mays (ZEAMX) [7] = assay: Post-emergence herbicidal activity, Zea Mays; parameters: key: 5=total damage to plant; 0=no damage to plant; conditions: 1000 g/ha, evaluated after 13 days, Test 2b
Description: as §2

[8] = system: Echinochloa crus-galli (ECHCG); assay: Post-emergence herbicidal activity, Echinochloa crus-galli; conditions: 1000 g/ha, evaluated after 13 days, Test 2b
In short: as §3

Lolium perenne (LOLPE) [9] = assay: Pre-emergence herbicidal activity, Lolium perenne; parameters: key: 5=total damage to plant; 0=no damage to plant; conditions: 1000 g/ha, evaluated after 13 days, Test 1b
In short: as §4

Setaria faberi (SETFA) [10] = assay: Post-emergence herbicidal activity, Setaria faberi; parameters: key: 5=total damage to plant; 0=no damage to plant; conditions: 1000 g/ha, evaluated after 13 days, Test 2b
In short: as §3

[11] = system: Echinochloa crus-galli (ECHCG); assay: Pre-emergence herbicidal activity, Echinochloa crus-galli; parameters: key: 5=total damage to plant; 0=no damage to plant; conditions: 1000 g/ha, evaluated after 13 days, Test 1b
In short: as §4

Zea Mays (ZEAMX) [12] = assay: Pre-emergence herbicidal activity, Zea Mays; parameters: key: 5=total damage to plant; 0=no damage to plant; conditions: 1000 g/ha, evaluated after 13 days, Test 1b
Description: as §1

| SMILES | ABUTH damage score (0-5) [1] | AMARE damage score (0-5) [2] | LOLPE damage score (0-5) (Lolium perenne (LOLPE) [3]) | AMARE damage score (0-5) [4] | SETFA damage score (0-5) (Setaria faberi (SETFA) [5]) | ABUTH damage score (0-5) [6] | ZEAMX damage score (0-5) (Zea Mays (ZEAMX) [7]) | ECHCG damage score (0-5) [8] | LOLPE damage score (0-5) (Lolium perenne (LOLPE) [9]) | SETFA damage score (0-5) (Setaria faberi (SETFA) [10]) | ECHCG damage score (0-5) [11] | ZEAMX damage score (0-5) (Zea Mays (ZEAMX) [12]) |
| --- | --- | --- | --- | --- | --- | --- | --- | --- | --- | --- | --- | --- |
| Cc1nc(-c2cncc(OC(F)F)c2)ccc1NC(=O)OC(C)(C)C [Compound B13] | 0 | 1 | 2 | 0 | 3 | 0 | 5 | 3 | 1 | 5 | 2 | 2 |
| CN(C(=O)OC(C)(C)C)c1ccc(-c2cncc(C(F)(F)F)c2)nc1C(F)(F)F [Compound B17] | 0 | 0 | 0 | 0 | 0 | 0 | 1 | 1 | 0 | 1 | 0 | 0 |
| COc1cncc(-c2ccc(N(C)C(=O)OC(C)(C)C)c(C(F)(F)F)n2)c1 [Compound B21] | 1 | 0 | 1 | 1 | 1 | 0 | 2 | 2 | 0 | 3 | 0 | 0 |
| Cc1cncc(-c2ccc(N(C)C(=O)OC(C)(C)C)c(C(F)(F)F)n2)c1 [Compound B18] | 1 | 0 | 1 | 1 | 1 | 0 | 2 | 2 | 0 | 3 | 0 | 0 |
| CC(C)(C)OC(=O)Nc1ccc(-c2cncnc2)nc1C(F)(F)F [Compound B32, tert-butyl N-[6-pyrimidin-5-yl-2-(trifluoromethyl)-3-pyridyl]carbamate] | 0 | 0 | 2 | 0 | 5 | 0 | 5 | 4 | 1 | 5 | 3 | 5 |
| CC(C)(C)OC(=O)Nc1ccc(-c2cncnc2)nc1Cl [Compound B27] | 0 | 2 | 2 | 0 | 4 | 2 | 3 | 4 | 1 | 5 | 4 | 2 |
| Cc1nc(-c2cncc(C(F)(F)F)c2)ccc1NC(=O)OC(C)(C)C [Compound B24] | 1 | 2 | 1 | 1 | 1 | 1 | 2 | 2 | 0 | 2 | 0 | 1 |
| CN(C(=O)OC(C)(C)C)c1ccc(-c2cncnc2)nc1C(F)(F)F [Compound B31] | 0 | 1 | 2 | 1 | 5 | 1 | 5 | 4 | 1 | 5 | 3 | 4 |
| Cc1nc(-c2cccnc2)ccc1NC(=O)OC(C)(C)C [Compound B25] | 1 | 2 | 4 | 1 | 5 | 2 | 4 | 3 | 2 | 5 | 2 | 3 |
| CN(C(=O)OC(C)(C)C)c1ccc(-c2cncc(F)c2)nc1C(F)(F)F [Compound B29, tert-butyl N-[6-(5-fluoro-3-pyridyl)-2-(trifluoromethyl)-3-pyridyl]-N-methyl-carbamate] | 1 | 1 | 3 | 2 | 4 | 1 | 5 | 4 | 1 | 5 | 4 | 3 |
| CC(C)OC(=O)Nc1ccc(-c2cncc(F)c2)nc1C(F)(F)F [Compound B16, isopropyl N-[6-(5-fluoro-3-pyridyl)-2-(trifluoromethyl)-3-pyridyl]carbamate] | 0 | 0 | 3 | 0 | 4 | 0 | 5 | 4 | 1 | 5 | 3 | 5 |
| Cc1nc(-c2cncc(F)c2)ccc1NC(=O)OC(C)(C)C [Compound B19] | 1 | 2 | 4 | 1 | 4 | 1 | 5 | 4 | 3 | 5 | 4 | 5 |
| COc1cncc(-c2ccc(NC(=O)OC(C)(C)C)c(C)n2)c1 [Compound B23] | 1 | 1 | 2 | 1 | 4 | 1 | 5 | 2 | 1 | 3 | 1 | 1 |
